Assays:
[1] = target: T1, Replicase polyprotein 1ab (Severe acute respiratory syndrome coronavirus 2, UniProt P0DTD1)
[2] = target: Replicase polyprotein 1ab (Severe acute respiratory syndrome coronavirus 2) (UniProt P0DTD1); settings: dose 31.25-1000 nM, time 100.0 sec
[3] = Tmax in ICR mouse at 20 mg/kg, po; type: ADME, organism-based; settings: in vivo
[4] = target: T1, Replicase polyprotein 1ab; remark: listed apart in the source
[5] = target: Replicase polyprotein 1ab (Severe acute respiratory syndrome coronavirus 2) (UniProt P0DTD1); settings: dose 31.25-1000 nM, time 100.0 sec; remark: listed apart in the source
[6] = AUClast in ICR mouse at 20 mg/kg, po; type: ADME, organism-based; settings: in vivo
[7] = AUC (0 to infinity) in ICR mouse at 20 mg/kg, po; type: ADME, organism-based; settings: in vivo
[8] = Half-life in ICR mouse at 20 mg/kg, po; type: ADME, organism-based; settings: in vivo
[9] = Observed MRT (0 to infinity) in ICR mouse at 20 mg/kg, po; type: ADME, organism-based; settings: in vivo
[10] = Cytotoxicity against African green monkey Vero E6 cells incubated for 24 hrs by CCK8 assay; type: toxicity, cell-based, Vero C1008; settings: chlorocebus sabaeus
[11] = Cmax in ICR mouse at 20 mg/kg, po; type: ADME, organism-based; settings: in vivo
[12] = target: T1, Replicase polyprotein 1ab; remark: listed apart in the source

Row | Structure (SMILES) | IC50 [1] [nM] | other results
1 | CNC(=O)c1cc(Br)cc([N+](=O)[O-])c1N[C@@H]1CCCC[C@@H]1NC(=O)c1cc(=O)[nH]c2ccccc12 | 40.8 | K [2]: 0.019 s⁻¹; Tmax [3]: 15 min; Kd [4]: 8.9 nM; K [5]: 2.1 10^5/M/s; AUC(0-t) [6]: 23.6 ng·h/mL; AUC(0-inf) [7]: 29.9 ng·h/mL; half-life [8]: 231 min; MRT inf [9]: 5.09 h; CC50 at 24 h [10]: > 200 µM; Cmax [11]: 11.3 ng/mL
2 | O=C(c1cc(=O)[nH]c2ccccc12)N1CCN(c2ccc(Cl)c(Cl)c2)CC1CN1CCOCC1 (configuration not stated) | 150 | IC50 [12]: 150 nM; K [2]: 0.028 s⁻¹; Kd [4]: 117 nM; CC50 at 24 h [10]: 381 µM
3 | O=C(C1CN(c2ccc(Cl)c(Cl)c2)CCN1C(=O)c1cc(=O)[nH]c2ccccc12)N1CC2(COC2)C1 (configuration not stated) | 2110 | 
4 | O=C(C1CN(c2ccc(Cl)c(Cl)c2)CCN1C(=O)c1cc(=O)[nH]c2ccccc12)N1CCOCC1 (configuration not stated) | 9470 | 
5 | O=C(NCCCC(F)(F)F)C1CN(c2ccc(Cl)c(Cl)c2)CCN1C(=O)c1cc(=O)[nH]c2ccccc12 (configuration not stated) | 200 | CC50 at 24 h [10]: 69.4 µM
6 | O=C1CC2CN(C(=O)C3CN(c4ccc(Cl)c(Cl)c4)CCN3C(=O)c3cc(=O)[nH]c4ccccc34)CC2C1 (configuration not stated) | 1850 | 
7 | O=C(N[C@H]1CCC[C@H]1Nc1c(C(=O)N2CCOCC2)cc(C2CC2)cc1[N+](=O)[O-])c1cc(=O)[nH]c2ccccc12 | 23.5 | 
8 | O=C(NCC1CCCC1)C1CN(c2ccc(Cl)c(Cl)c2)CCN1C(=O)c1cc(=O)[nH]c2ccccc12 (configuration not stated) | 280 | 
9 | O=C(NCCN1CCOCC1)C1CN(c2ccc(Cl)c(Cl)c2)CCN1C(=O)c1cc(=O)[nH]c2ccccc12 (configuration not stated) | 840 | 
10 | CNC(=O)c1cc(C2CC2)cc([N+](=O)[O-])c1N[C@@H]1CCCC[C@@H]1NC(=O)c1cc(=O)[nH]c2ccccc12 | 20.7 | CC50 at 24 h [10]: > 200 µM
11 | CN1CCN(C(=O)c2cc(C3CC3)cc([N+](=O)[O-])c2N[C@@H]2CCC[C@@H]2NC(=O)c2cc(=O)[nH]c3ccccc23)CC1 | 24.9 | 
12 | COc1ccc2[nH]c(=O)cc(C(=O)N[C@H]3CCC[C@H]3Nc3c(C(=O)N4CCOCC4)cc(C4CC4)cc3[N+](=O)[O-])c2c1 | 20.3 | 
13 | CNC(=O)c1cc(Br)cc([N+](=O)[O-])c1N[C@@H]1CCCC[C@@H]1NC(=O)c1cc(=O)[nH]c2c(F)cccc12 | 57 | K [2]: 0.018 s⁻¹; Tmax [3]: 3 min; Kd [4]: 23.6 nM; K [5]: 7.5 10^5/M/s; AUC(0-t) [6]: 56.1 ng·h/mL; AUC(0-inf) [7]: 58.2 ng·h/mL; half-life [8]: 139 min; MRT inf [9]: 1.56 h; CC50 at 24 h [10]: > 200 µM; Cmax [11]: 63.6 ng/mL
14 | CNC(=O)c1cc(Br)cc([N+](=O)[O-])c1N[C@H]1CCC[C@H]1NC(=O)c1cc(=O)[nH]c2ccccc12 | 51.3 | 
15 | CCCCNC(=O)C1CN(c2ccc(Cl)c(Cl)c2)CCN1C(=O)c1cc(=O)[nH]c2ccccc12 (configuration not stated) | 580 | 
16 | O=C(N[C@H]1CCCC[C@H]1Nc1c(C(=O)N2CCOCC2)cc(Br)cc1[N+](=O)[O-])c1cc(=O)[nH]c2c(F)cccc12 | 26.9 | K [2]: 0.01 s⁻¹; Tmax [3]: 15 min; Kd [4]: 19 nM; K [5]: 5.4 10^5/M/s; AUC(0-t) [6]: 21.2 ng·h/mL; AUC(0-inf) [7]: 21.6 ng·h/mL; half-life [8]: 48 min; MRT inf [9]: 0.65 h; CC50 at 24 h [10]: > 200 µM; Cmax [11]: 33.9 ng/mL
17 | CNC(=O)c1cc(Br)cc([N+](=O)[O-])c1N[C@@H]1CCCC[C@@H]1NC(=O)c1cc(=O)[nH]c2ccc(F)cc12 | 58.2 | CC50 at 24 h [10]: > 200 µM
18 | O=C(c1cc(=O)[nH]c2ccccc12)N1CCN(c2ccc(Cl)c(Cl)c2)C[C@@H]1CC1CCCCC1 | > 20000 | 
19 | COc1ccc2[nH]c(=O)cc(C(=O)N[C@H]3CCCC[C@H]3Nc3c(C(=O)N4CCOCC4)cc(Br)cc3[N+](=O)[O-])c2c1 | 29.2 | 

Row | Structure (SMILES) | IC50 [1] [nM] | other results
20 | CN1CCN(C(=O)c2cc(Br)cc([N+](=O)[O-])c2N[C@@H]2CCC[C@@H]2NC(=O)c2cc(=O)[nH]c3ccccc23)CC1 | 22.9 | 
21 | CNC(=O)c1cc(Br)cc([N+](=O)[O-])c1N[C@@H]1CCCC[C@@H]1NC(=O)c1cc(=O)[nH]c2cc(F)ccc12 | 105 | 
22 | COc1ccc2[nH]c(=O)cc(C(=O)N[C@H]3CCCC[C@H]3Nc3c(C(=O)N4CCOCC4)cc(C4CC4)cc3[N+](=O)[O-])c2c1 | 10.6 | CC50 at 24 h [10]: > 200 µM
23 | O=C(NCCC1CCOCC1)C1CN(c2ccc(Cl)c(Cl)c2)CCN1C(=O)c1cc(=O)[nH]c2ccccc12 (configuration not stated) | 1140 | 
24 | O=C(NCCC1CC1)C1CN(c2ccc(Cl)c(Cl)c2)CCN1C(=O)c1cc(=O)[nH]c2ccccc12 (configuration not stated) | 520 | 
25 | O=C(c1cc(=O)[nH]c2ccccc12)N1CCC(Nc2ccc(Cl)c(Cl)c2)C1 (configuration not stated) | 8330 | 
26 | O=C(N[C@@H]1CCC[C@@H]1Nc1ccc(Cl)c(Cl)c1)c1cc(=O)[nH]c2ccccc12 | > 10000 | 
27 | CNC(=O)c1cc(Br)cc([N+](=O)[O-])c1NC1CCN(C(=O)c2cc(=O)[nH]c3ccccc23)C1 (configuration not stated) | 195 | 
28 | O=C(N[C@H]1CCCC[C@H]1Nc1c(C(=O)N2CCOCC2)cc(Br)cc1[N+](=O)[O-])c1cc(=O)[nH]c2cc(F)ccc12 | 38.7 | 
29 | CN(CC1COCCO1)C(=O)C1CN(c2ccc(Cl)c(Cl)c2)CCN1C(=O)c1cc(=O)[nH]c2ccccc12 (configuration not stated) | 2610 | 
30 | O=C(N[C@H]1CCC[C@H]1Nc1c(C(=O)N2CCOCC2)cc(Br)cc1[N+](=O)[O-])c1cc(=O)[nH]c2c(F)cccc12 | 36.5 | 
31 | O=C1CCN(C(=O)C2CN(c3ccc(Cl)c(Cl)c3)CCN2C(=O)c2cc(=O)[nH]c3ccccc23)CC1 (configuration not stated) | 3310 | 
32 | O=C(NCCC(F)(F)F)C1CN(c2ccc(Cl)c(Cl)c2)CCN1C(=O)c1cc(=O)[nH]c2ccccc12 (configuration not stated) | 200 | CC50 at 24 h [10]: 50.3 µM
33 | O=C(NCCC(F)(F)F)[C@@H]1CN(c2ccc(Cl)c(Cl)c2)CCN1C(=O)c1cc(=O)[nH]c2ccccc12 | 150 | 
34 | CN1CCN(C(=O)c2cc(Br)cc([N+](=O)[O-])c2N[C@@H]2CCC[C@@H]2NC(=O)c2cc(=O)[nH]c3c(F)cccc23)CC1 | 28.6 | 
35 | O=C(NCC1CCO1)C1CN(c2ccc(Cl)c(Cl)c2)CCN1C(=O)c1cc(=O)[nH]c2ccccc12 (configuration not stated) | 310 | 
36 | O=C(N[C@H]1CCCC[C@H]1Nc1c(C(=O)N2CCOCC2)cc(C2CC2)cc1[N+](=O)[O-])c1cc(=O)[nH]c2ccccc12 | 9.6 | CC50 at 24 h [10]: > 200 µM
37 | O=C(C1CN(c2ccc(Cl)c(Cl)c2)CCN1C(=O)c1cc(=O)[nH]c2ccccc12)N1CCC2(CC1)COC2 (configuration not stated) | 2220 | 
38 | O=C(NCC1CCCCC1)C1CN(c2ccc(Cl)c(Cl)c2)CCN1C(=O)c1cc(=O)[nH]c2ccccc12 (configuration not stated) | 440 | 

Row | Structure (SMILES) | IC50 [1] [nM] | other results
39 | O=C(N[C@H]1CCCC[C@H]1Nc1c(C(=O)N2CCOCC2)cc(C2CC2)cc1[N+](=O)[O-])c1cc(=O)[nH]c2c(F)cccc12 | 11.5 | 
40 | COc1ccc2[nH]c(=O)cc(C(=O)N[C@H]3CCC[C@H]3Nc3c(C(=O)N4CCN(C)CC4)cc(C4CC4)cc3[N+](=O)[O-])c2c1 | 24 | 
41 | CN1CCN(C(=O)c2cc(C3CC3)cc([N+](=O)[O-])c2N[C@@H]2CCC[C@@H]2NC(=O)c2cc(=O)[nH]c3c(F)cccc23)CC1 | 28.5 | 
42 | O=C(N[C@H]1CCCC[C@H]1Nc1c(C(=O)N2CCOCC2)cc(Br)cc1[N+](=O)[O-])c1cc(=O)[nH]c2ccccc12 | 32.7 | CC50 at 24 h [10]: > 200 µM
43 | COc1ccc2[nH]c(=O)cc(C(=O)N[C@H]3CCCC[C@H]3Nc3c(C(=O)N4CCN(C)CC4)cc(Br)cc3[N+](=O)[O-])c2c1 | 18 | 
44 | CC1(C)C2CN(C(=O)C3CN(c4ccc(Cl)c(Cl)c4)CCN3C(=O)c3cc(=O)[nH]c4ccccc34)CC21 (configuration not stated) | 4510 | 
45 | O=C(NCCCN1CCOCC1)C1CN(c2ccc(Cl)c(Cl)c2)CCN1C(=O)c1cc(=O)[nH]c2ccccc12 (configuration not stated) | 1340 | 
46 | O=C(N[C@H]1CCC[C@H]1Nc1c(C(=O)N2CCOCC2)cc(Br)cc1[N+](=O)[O-])c1cc(=O)[nH]c2ccccc12 | 20.9 | 
47 | O=C(NCC1CC1)C1CN(c2ccc(Cl)c(Cl)c2)CCN1C(=O)c1cc(=O)[nH]c2ccccc12 (configuration not stated) | 340 | 
48 | O=C(c1cc(=O)[nH]c2ccccc12)N1CCN(c2ccc(Cl)c(Cl)c2)CC1Cc1ccccc1 (configuration not stated) | > 20000 | 
49 | O=C(NCC1CCCO1)C1CN(c2ccc(Cl)c(Cl)c2)CCN1C(=O)c1cc(=O)[nH]c2ccccc12 (configuration not stated) | 350 | 
50 | CN1CCN(C(=O)C2CN(c3ccc(Cl)c(Cl)c3)CCN2C(=O)c2cc(=O)[nH]c3ccccc23)CC1 (configuration not stated) | 1320 | 
51 | O=C(NCCC(F)(F)F)[C@H]1CN(c2ccc(Cl)c(Cl)c2)CCN1C(=O)c1cc(=O)[nH]c2ccccc12 | 540 | 
52 | O=C1CC2(CCN(C(=O)C3CN(c4ccc(Cl)c(Cl)c4)CCN3C(=O)c3cc(=O)[nH]c4ccccc34)CC2)C1 (configuration not stated) | 1290 | 
53 | O=C(NCCC1CCCC1)C1CN(c2ccc(Cl)c(Cl)c2)CCN1C(=O)c1cc(=O)[nH]c2ccccc12 (configuration not stated) | 920 | 
54 | CNC(=O)c1cccc([N+](=O)[O-])c1N[C@@H]1CCCC[C@@H]1NC(=O)c1cc(=O)[nH]c2ccccc12 | 1240 | 
55 | O=C(N[C@H]1CCC[C@H]1Nc1c(C(=O)N2CCOCC2)cc(C2CC2)cc1[N+](=O)[O-])c1cc(=O)[nH]c2c(F)cccc12 | 21.3 | 
56 | O=C(NCC1CCC1)C1CN(c2ccc(Cl)c(Cl)c2)CCN1C(=O)c1cc(=O)[nH]c2ccccc12 (configuration not stated) | 300 | 

Reference: ChEMBL document CHEMBL5523769, “Discovery of Novel Nonpeptidic and Noncovalent Small Molecule 3CLpro Inhibitors as anti-SARS-CoV-2 Drug Candidate” (J Med Chem, 2024)
